Read-outs that look alike come from different tables or passages of the source.
T1: SbOMT1 (Sorghum bicolor, UniProt A8QW52)
T1 construct: full-length open reading frames for all three OMTs were overexpressed in E. coli as N-terminal polyhistidine fusions; polyhistidine (pET15b) (N); made in house; host or cells: E. coli BL21/DE3
T1 sequence (A8QW52 1-376): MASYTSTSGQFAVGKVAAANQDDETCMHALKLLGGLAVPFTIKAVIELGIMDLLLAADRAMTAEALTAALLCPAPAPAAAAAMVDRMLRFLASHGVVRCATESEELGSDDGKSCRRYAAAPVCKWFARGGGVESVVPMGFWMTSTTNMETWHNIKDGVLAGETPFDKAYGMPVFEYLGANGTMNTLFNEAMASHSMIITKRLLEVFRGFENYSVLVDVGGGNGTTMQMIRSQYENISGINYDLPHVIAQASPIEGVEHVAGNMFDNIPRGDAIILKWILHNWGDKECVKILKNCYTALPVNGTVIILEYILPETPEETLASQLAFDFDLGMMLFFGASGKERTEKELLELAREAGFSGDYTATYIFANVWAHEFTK

T2: SbOMT2 (Sorghum bicolor, UniProt A8QW51)
T2 construct: full-length open reading frames for all three OMTs were overexpressed in E. coli as N-terminal polyhistidine fusions; polyhistidine (pET15b) (N); made in house; host or cells: E. coli BL21/DE3
T2 sequence (A8QW51 1-372): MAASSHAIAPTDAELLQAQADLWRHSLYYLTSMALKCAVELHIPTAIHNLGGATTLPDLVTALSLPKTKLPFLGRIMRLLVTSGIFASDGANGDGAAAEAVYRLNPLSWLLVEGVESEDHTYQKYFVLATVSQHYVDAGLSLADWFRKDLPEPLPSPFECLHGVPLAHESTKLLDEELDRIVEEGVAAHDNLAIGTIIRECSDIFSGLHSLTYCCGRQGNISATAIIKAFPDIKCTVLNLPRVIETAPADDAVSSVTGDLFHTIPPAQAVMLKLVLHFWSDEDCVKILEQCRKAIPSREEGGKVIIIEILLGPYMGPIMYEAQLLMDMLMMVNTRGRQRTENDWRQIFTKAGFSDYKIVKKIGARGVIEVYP


Assays:
SbOMT3 = target: T3, SbOMT3 (Sorghum bicolor, UniProt A8QW53, DUP296-296); assay type: biochemical; conditions: for Km: recombinant SbOMT3, alkylresorcinols and co-substrate SAM; for Relative Activity (%) of Recombinant SbOMT3: relative to 5-n-pentyl-resorcinol = 100%, 30 min at 30° C.
T3 construct: full-length open reading frames for all three OMTs were overexpressed in E. coli as N-terminal polyhistidine fusions; polyhistidine (pET15b) (N); made in house; host or cells: E. coli BL21/DE3
T3 sequence (A8QW53 other isoform, or with tags, fused parts or gaps DUP296-296): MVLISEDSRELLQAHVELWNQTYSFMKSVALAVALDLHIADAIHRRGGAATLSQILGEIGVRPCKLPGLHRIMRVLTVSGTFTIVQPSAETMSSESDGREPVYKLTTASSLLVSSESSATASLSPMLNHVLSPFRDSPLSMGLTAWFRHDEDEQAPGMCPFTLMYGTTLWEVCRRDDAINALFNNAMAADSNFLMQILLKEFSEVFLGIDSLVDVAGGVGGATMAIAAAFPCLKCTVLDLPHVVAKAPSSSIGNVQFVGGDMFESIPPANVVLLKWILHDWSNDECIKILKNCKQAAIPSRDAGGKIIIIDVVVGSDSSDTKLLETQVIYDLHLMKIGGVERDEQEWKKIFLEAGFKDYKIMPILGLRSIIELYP
Description: (§1) Substrate specificities and kinetic parameters for recombinant OMTs were determined using to a modified protocol based on Wang and Pichersky (1999. Arch. Biochem. Biophys. 368: 172-180). All enzymatic assays consisted of 90 μL of assay buffer (250 mM Tris-HCl, pH 7.5, 10 mM DTT), 200 μL of purified enzyme preparation (200 μg protein/ml in), 5 μL of a 10 mM substrate stock solution (dissolved in 100% ethanol), and 5 μL of S-[methyl-^14C] adenosyl-L-methionine (40-60 mCi/mmol, 0.1 mCi/ml; ICN Biomedicals, Irvine, Calif.). Reactions were incubated for 30 min at 30° C. using a Thermomixer (Brinkman Instrument, Westbury, N.Y.), then quenched by addition of 25 μL of 6 N HCl. Radiolabeled products were subsequently extracted by the addition of 1 mL of hexane:ethyl acetate (1:1 vol/vol), and 300 μL of the (upper) organic phase were transferred to scintillation vials containing 5 mL of Ultima Gold scintillation fluid (Packard BioScience, Meriden, CT). Scintillation counts were performed using a Tri-Carb 1600TR Liquid Scintillation Analyzer (Packard BioScience). Protein concentrations and time points used for activity measurements were controlled to insure linearity of the assays. Kinetic parameters were determined from assays performed in triplicate as described above, but with substrate concentrations ranging from 10 μM to 10 mM. Data from enzyme kinetics experiments were fit to the Michaelis-Menten equation using the SigmaPlot v. 9.01 enzyme kinetics module (Systat Software, Inc., Point Richmond, Calif.).
(§2) A panel of benzene-derivatives containing different functional groups and substitution patterns were tested in enzyme assays with all three recombinant enzymes (Table 2), including a series of 5-n-alkylresorcinols of increasing chain length, as well as 5-n-pentadecatrienyl resorcinol, the proposed sorgoleone pathway intermediate and in vivo substrate for the participating OMT enzyme (FIG. 1). For these analyses, full-length open reading frames for all three OMTs were overexpressed in E. coli as N-terminal polyhistidine fusions, purified using an activated Ni-column, then radiometrically assayed in the presence of different substrates as described by Wang and Pichersky (1999, supra), with slight modifications.

CCCCCCCc1cc(O)cc(O)c1 = assay: purified protein, by the assay type; assay type: biochemical, Sorghum bicolor; conditions: other: recombinant SbOMT3, alkylresorcinols and co-substrate SAM; pH 7.5; 30.0 °C
Description: as §1, §2

CCCCCCc1cc(O)cc(O)c1 = assay: purified protein, by the assay type; assay type: biochemical, Sorghum bicolor; conditions: other: recombinant SbOMT3, alkylresorcinols and co-substrate SAM; pH 7.5; 30.0 °C
Description: as §1, §2

CCCCCc1cc(O)cc(O)c1 = assay: purified protein, by the assay type; assay type: biochemical, Sorghum bicolor; conditions: other: recombinant SbOMT3, alkylresorcinols and co-substrate SAM; pH 7.5; 30.0 °C
Description: as §1, §2

CCCCc1cc(O)cc(O)c1 = assay: purified protein, by the assay type; assay type: biochemical, Sorghum bicolor; conditions: other: recombinant SbOMT3, alkylresorcinols and co-substrate SAM; pH 7.5; 30.0 °C
Description: as §1, §2

SbOMT1 [1] = target: T1, SbOMT1; assay: OMT enzymatic assay (radiometric, 14C-SAM) with recombinant SbOMT1; assay type: biochemical; conditions: relative to eugenol = 100%; 30 min at 30° C.
SbOMT2 = target: T2, SbOMT2; assay: Reaction of recombinant SbOMT2 with resveratrol, GC-MS analysis; assay type: biochemical
Text: (§3) The products from these reactions were then chemically analyzed by gas chromatography/mass spectroscopy. […] Thus, only about 2% of the product obtained was pterostilbene; 88% was 3,5-dihydroxy-4′-methoxystilbene (FIG. 7B).

[2] = system: Phaeoacremonium aleophilum, Phaeomoniella chlamydospora, Libertella blepharis, Fomitiporia punctata and Stereum hirsutum; conditions: Mazzullo et al. 2000; cited from earlier work
[3] = system: Candida albicans, Cryptococcus neoformans, Staphylococcus aureus, and methicillin-resistant S. aureus; conditions: Rimando et al. 2003a; cited from earlier work
SbOMT1 [4] = target: T1, SbOMT1; assay: GC-MS analysis of products of recombinant SbOMT1 reacted with resveratrol; assay type: biochemical
Text: as §3

[5] = system: human breast cancer and murine lymphoid neoplasma cell lines; conditions: cited from earlier work
[6] = substrate: Oc1ccc(C=Cc2cc(O)cc(O)c2)cc1; assay: purified protein, by the assay type; conditions: other: recombinant SbOMT1, substrate resveratrol; pH 7.5; 30.0 °C
[7] = recombinant SbOMT3, alkylresorcinols

| Molecule | Relative Activity (%) of Recombinant SbOMT1 (SbOMT1 [1]) [%] | Relative Activity (%) of Recombinant SbOMT3 (SbOMT3) | other results |
| --- | --- | --- | --- |
| C[S+](CC[C@H](N)C(=O)[O-])C[C@H]1O[C@@H](n2cnc3c(N)ncnc32)[C@H](O)[C@@H]1O (stereo partly drawn) [SAM, S-Adenosyl-L-Methionine] |  |  | Km (SbOMT3; read-out: Km): 67.5 µM |
| SbOMT3 (Sorghum bicolor; DUP296-296) |  |  | Km (CCCCCCCc1cc(O)cc(O)c1): 23 µM; Vmax (CCCCCCCc1cc(O)cc(O)c1): 0.000173 µmol/min/mg; kcat (CCCCCCCc1cc(O)cc(O)c1): 0.00012 s⁻¹; kcat/Km (CCCCCCCc1cc(O)cc(O)c1): 5.2 M⁻¹ s⁻¹; Km (CCCCCCc1cc(O)cc(O)c1): 72 µM; Vmax (CCCCCCc1cc(O)cc(O)c1): 0.00042 µmol/min/mg; kcat (CCCCCCc1cc(O)cc(O)c1): 0.0003 s⁻¹; kcat/Km (CCCCCCc1cc(O)cc(O)c1): 4.2 M⁻¹ s⁻¹; Km (CCCCCc1cc(O)cc(O)c1): 152 µM; Vmax (CCCCCc1cc(O)cc(O)c1): 0.000653 µmol/min/mg; kcat (CCCCCc1cc(O)cc(O)c1): 0.00047 s⁻¹; kcat/Km (CCCCCc1cc(O)cc(O)c1): 3.1 M⁻¹ s⁻¹; Km (CCCCc1cc(O)cc(O)c1): 481 µM; Vmax (CCCCc1cc(O)cc(O)c1): 0.00055 µmol/min/mg; kcat (CCCCc1cc(O)cc(O)c1): 0.00039 s⁻¹; kcat/Km (CCCCc1cc(O)cc(O)c1): 0.81 M⁻¹ s⁻¹ |
| COc1ccccc1O [Guaiacol] | 7.8 ± 0.5 | 3.2 ± 0.6% |  |
| O=C(O)/C=C/c1ccc(O)c(O)c1 [Caffeic acid] |  | 3.6 ± 0.6 3.6 ± 0.6% |  |
| CCCCCc1cc(O)cc(O)c1 [5-n-Pentyl-resorcinol] |  | 100 ± 2.2% |  |
| C=CCc1ccc(O)c(OC)c1 [Eugenol] | 100 ± 5.2 | 3.2 ± 0.5% |  |
| CCCCc1cc(O)cc(O)c1 [5-n-Butyl-resorcinol] | 1.1 ± 0.1 | 42.0 ± 1.2% |  |
| COc1cc(/C=C/C(=O)O)ccc1O [Ferulic acid] | 3.1 ± 0.3 | 3.5 ± 0.6% |  |
| Cc1cc(O)cc(O)c1 [Orcinol] | 1.3 ± 0.7 | 4.5 ± 0.1% |  |
| Oc1ccc(C=Cc2cc(O)cc(O)c2)cc1 [Resveratrol] |  |  | reaction of SbOMT2 with resveratrol (SbOMT2): did not react; inhibition of esca fungi (mycelial growth) [2]: did not inhibit mycelial growth; inhibition of human pathogens [3]: ineffective |
| CCCCCCCCCCCCCCCc1cc(O)cc(O)c1 [5-n-Pentadecyl-resorcinol] | <1.0 | 5.0 ± 0.4% |  |
| COc1cc(C)cc(O)c1 [Orcinol monomethyl ether] | 49.6 ± 1.6 | 3.5 ± 0.5% |  |
| COc1ccc(C=Cc2cc(O)cc(O)c2)cc1 [3,5-dihydroxy-4′-methoxystilbene] |  |  | share of the product obtained from reaction of SbOMT1 with resveratrol (SbOMT1 [4]): 88% |
| Oc1ccccc1O [Catechol] |  | 3.6 ± 0.6 3.6 ± 0.6% |  |
| COc1cc(/C=C/c2ccc(O)cc2)cc(OC)c1 [Pterostilbene] |  |  | cytotoxicity against cancer cell lines [5]: cytotoxic |
| CCCCCCCCCc1cc(O)cc(O)c1 [5-n-Nonyl-resorcinol] | 0 | 3.3 ± 0.8% |  |
| COc1cccc(O)c1 [Resorcinol monomethyl ether] | 24.8 ± 1.1 | 3.2 ± 0.7% |  |
| C=CC/C=C\C/C=C\CCCCCCCc1cc(O)cc(O)c1 [5-n-[8′, 11′, 14′]-Pentadecatrienyl-resorcinol] |  | 14.9 ± 4.3% | activity of SbOMT3 relative to that for 5-pentadecyl resorcinol (SbOMT3; higher than saturated side chain analogue of identical length): approximately 3 fold |
| CCCCCCCc1cc(O)cc(O)c1 [5-n-Heptyl-resorcinol] | 0 | 27.2 ± 1.3% |  |
| Oc1cccc(O)c1 [Resorcinol] |  | 4.1 ± 0.1% |  |
| CCCCCCc1cc(O)cc(O)c1 [5-n-Hexyl-resorcinol] | 0 | 79.4 ± 7.6% |  |
| O=C(O)/C=C/c1ccc(O)cc1 [p-Coumaric acid] | 0 | 3.5 ± 0.4% |  |
| CCCc1cc(O)cc(O)c1 [5-n-Propyl-resorcinol] | 2.2 ± 0.9 | 11.8 ± 0.2% | Kcat (SbOMT3; [7]): 1.9 s^−1 × 10^4; V max (SbOMT3; [7]): 15.6 nmol/mg/h; Km (SbOMT3): 1440 µM |
| COc1ccc(O)cc1 [4-Methoxyphenol] | 8.3 ± 0.5 | 3.3 ± 0.6% |  |
| SbOMT1 (Sorghum bicolor) (protein) MASYTSTSGQFAVGKVAAANQDDETCMHALKLLGGLAVPFTIKAVIELGIMDLLLAADRAMTAEALTAALLCPAPAPAAAAAMVDRMLRFLASHGVVRCATESEELGSDDGKSCRRYAAAPVCKWFARGGGVESVVPMGFWMTSTTNMETWHNIKDGVLAGETPFDKAYGMPVFEYLGANGTMNTLFNEAMASHSMIITKRLLEVFRGFENYSVLVDVGGGNGTTMQMIRSQYENISGINYDLPHVIAQASPIEGVEHVAGNMFDNIPRGDAIILKWILHNWGDKECVKILKNCYTALPVNGTVIILEYILPETPEETLASQLAFDFDLGMMLFFGASGKERTEKELLELAREAGFSGDYTATYIFANVWAHEFTK |  |  | Km [6]: 16.9 ± 1.2 µM; Vmax [6]: 0.00014 µmol/min/mg; kcat [6]: 0.0001 s⁻¹; kcat/Km [6]: 5.9 M⁻¹ s⁻¹ |
